Measured values published in PubChem BioAssay AID434995 (Southern Research Specialized Biocontainment Screening …, 2010).
Active and inactive are the calls of the source. The rule behind the calls is not given here.

Tested on: not listed separately
Assay: PhoP regulon inhibitors in S. Typhi, SAR follow-up, purified and synthesized compounds, round 3 (AID 434995)
Settings: S. Typhi PhoP-regulated promoter GFP reporter, 4 h; at 75 µM (top of the series)

SMILES	inhibition
O=C(Nc1ccc(Cl)cc1)N1CCCN(Cc2ccc(Br)cc2)C1	-28.5% (inactive)

Same assay, conditions: S. Typhi PhoP-regulated promoter GFP reporter, 4 h; at 150 µM (top of the series)

SMILES	inhibition
Cc1ccccc1CNC(=S)Nc1ccncc1	-37.8% (inactive)
O=C(Nc1cccc(C(F)(F)F)c1)N1CCCN(Cc2ccccc2F)C1	8.86% (inactive)
Cc1ccc(NC(=O)N2CCCN(Cc3ccccc3F)C2)cc1	-12.7% (inactive)
COc1ccccc1CNC(=S)Nc1ccncc1	11.4% (inactive)
N#Cc1ccc(NC(=S)NCc2ccc(Cl)cc2)cc1	-25.7% (inactive)
O=C(Nc1cccc(F)c1)N1CCCN(Cc2ccccc2F)C1	25.8% (inactive)
N#Cc1ccccc1NC(=S)NCc1ccc(Cl)cc1	-27.4% (inactive)
O=C(Nc1cccc(I)c1)N1CCCN(Cc2ccccc2F)C1	-16.5% (inactive)

Tested on: S. Typhi PhoP-regulated promoter GFP reporter, 4 h
Assay: as above
Settings: not given

SMILES	IC50 [µM]
S=C(NCCc1ccc(Cl)cc1)Nc1ccncc1	20.7
O=C(Nc1ccc(Cl)cc1)N1CCCN(Cc2ccccc2Br)C1	116
O=C(Nc1ccc(I)cc1)N1CCCN(Cc2ccccc2F)C1	81.6
